“Also recorded” adds a separate entry of the source.
Experiments:
[1] = molecular target: T1, human δ-opioid receptor (OPRD1) (Homo sapiens, UniProt P41143); test: Forskolin-induced cAMP accumulation assay, DOR agonist mode; settings: for Emax: CHO-K1, read-out: DOR Agonist %Emax ± SEM
[2] = molecular target: T2, human κ-opioid receptor (OPRK1) (Homo sapiens, UniProt P41145); test: cell-based
[3] = molecular target: T2, human κ-opioid receptor (OPRK1); test: cell-based; remark: listed apart in the source
[4] = molecular target: T2, human κ-opioid receptor (OPRK1); settings: versus EC90 of U50488H; normalized to nor-BNI
[5] = molecular target: T1, human δ-opioid receptor (OPRD1); test: Forskolin-induced cAMP accumulation assay, DOR antagonist mode; settings: for DOR Antagonist %Imax ± SEM: versus EC50 of SNC80, normalized to naltrexone
squirrel monkeys [6] = test: Antinociception: warm-water tail-withdrawal; assay type: in vivo, squirrel monkeys (Saimiri sciureus); settings: 52 °C water, cumulative dosing
Experimental: Male squirrel monkeys (Saimiri sciureus) were housed in a climate-controlled vivarium with a 12 h light/dark cycle (7 AM–7 PM) in the McLean Hospital Animal Care Facility (licensed by the U.S. Department of Agriculture and compliant with guidelines provided by the Committee on Care and Use of Laboratory Animals of the Institute of Laboratory Animals Resources, Commission on Life Sciences, National Research Council; 2011). Tail withdrawal latencies were assessed as described previously. Briefly, monkeys were seated in customized Plexiglas chairs that allowed their tails to hang freely. Tail withdrawal latencies were measured by immersing the subject’s tail in water held at 35 or 52 °C (temperatures were presented in a randomized order during successive test components). After obtaining a baseline tail withdrawal latency, complete dose response curves were generated in each subject using standard cumulative dosing procedures. Briefly, every 15 min after an injection tail-withdrawal latencies at each temperature were redetermined and subjects were injected with the next dose, such that the total (cumulative) dose was increased by ½ log10 units in each successive cycle. This procedure was repeated until either (a) the tail-withdrawal latency from 52 °C water reached the maximum allowable latency (10 sec), or (b) tail-withdrawal latency no longer increased with increases in dose of the test drug.
(§1) All statistical analyses and graphic representations were completed with GraphPad Prism version 9.3.0 (GraphPad Software, San Diego, CA, USA) using log transformed values of doses. Group means ± SEM tail withdrawal latencies (in sec) and minute volume ratios are plotted as a function of drug dose. Data were analyzed using One-way ANOVA with significance set at p < 0.05, followed by Dunnett’s multiple comparison test.

mouse mu opioid receptor [7] = molecular target: T3, mouse mu opioid receptor (Mus musculus, UniProt P42866); test: [35S]GTPγS functional assay (mMOR-CHO membranes); assay type: biochemical; settings: for EC50: mMOR-CHO membranes, read-out: GTPgS EC50; for Emax: read-out: GTPgS % Emax of (DAMGO)
T3 construct: expressed in transfected cells; host or cells: CHO (mMOR-CHO), membrane homogenates
T3 sequence (P42866 whole entry): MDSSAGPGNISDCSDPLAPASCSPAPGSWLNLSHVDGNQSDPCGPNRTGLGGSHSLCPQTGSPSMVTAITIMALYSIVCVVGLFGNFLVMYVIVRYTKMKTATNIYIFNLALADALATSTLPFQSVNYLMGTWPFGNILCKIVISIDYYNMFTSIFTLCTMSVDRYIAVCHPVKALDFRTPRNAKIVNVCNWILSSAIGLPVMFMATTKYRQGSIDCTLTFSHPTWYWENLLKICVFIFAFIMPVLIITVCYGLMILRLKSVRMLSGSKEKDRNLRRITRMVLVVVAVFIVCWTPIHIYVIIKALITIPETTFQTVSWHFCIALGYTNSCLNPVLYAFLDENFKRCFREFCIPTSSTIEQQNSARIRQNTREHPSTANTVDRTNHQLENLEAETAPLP

squirrel monkeys [8] = test: Respiratory depression: ventilatory response to hypercapnia (5% CO2 in air); assay type: in vivo, squirrel monkeys (Saimiri sciureus); settings: ratio of minute volumes in 5% CO2 and room air, cumulative dosing
Experimental: Ventilation measures were assessed as described previously. Briefly, squirrel monkeys were acclimated to a customized acrylic chamber (10″ d × 10″ w × 10″ h) that served as a whole-body plethysmograph (EMKA Technologies, Montreal, PQ, Canada). Gas (either air or a 5% CO2 in air mixture) was introduced to and extracted from the chamber at a constant flow rate of 5 L/min. Experimental sessions consisted of 4–6 consecutive 30 min cycles, each comprising a 20 min exposure to air followed by a 10 min exposure to 5% CO2. Drug effects were determined using cumulative dosing procedures, and injections were administered following each exposure to 5% CO2. Respiratory rate and tidal volume (mL/breath) were recorded over 1 min periods and were multiplied to provide minute volumes. Data from the last three minutes of each exposure to air or CO2 were averaged and used for analysis of drug effects on ventilation.
as §1

mouse mu opioid receptor [9] = molecular target: T3, mouse mu opioid receptor; test: Competition radioligand binding assay ([3H]naloxone, mMOR-CHO membranes); settings: 1.4 nM [3H]naloxone, read-out: [3H]NLX Binding Ki
Experimental: In vitro binding assays were performed using monocloned mouse mu opioid receptor expressing Chinese hamster ovary (CHO) cells (mMOR-CHO). mMOR-CHO cell culture and membrane homogenate preparation were performed as previously described. All assays were duplicated and repeated at least three times.
Competition binding assays were performed as previously described. […] Bound radioactive ligand was isolated by filtration through GF/B glass fiber filters and rinsed three times with ice-cold wash buffer (50 mM Tris-HCl, pH 7.2). Bound radioactivity was determined via liquid scintillation ounting. […] The IC50 values were determined by nonlinear regression analysis using GraphPad Prism 9 (GraphPad Software, San Diego, CA, USA) and converted to Ki values using the Cheng–Prusoff equation.

T2 sequence (P41145 whole entry): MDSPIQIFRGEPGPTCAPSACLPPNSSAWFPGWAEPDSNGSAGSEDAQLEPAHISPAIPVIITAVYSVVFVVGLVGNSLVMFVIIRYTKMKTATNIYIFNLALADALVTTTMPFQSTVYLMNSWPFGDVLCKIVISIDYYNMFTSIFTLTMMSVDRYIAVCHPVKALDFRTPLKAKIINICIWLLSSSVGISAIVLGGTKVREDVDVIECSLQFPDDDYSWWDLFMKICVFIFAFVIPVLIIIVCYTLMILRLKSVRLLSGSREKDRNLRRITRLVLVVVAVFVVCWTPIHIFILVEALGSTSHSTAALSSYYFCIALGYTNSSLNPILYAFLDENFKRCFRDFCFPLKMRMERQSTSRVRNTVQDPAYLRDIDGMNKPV
T1 sequence (P41143 whole entry): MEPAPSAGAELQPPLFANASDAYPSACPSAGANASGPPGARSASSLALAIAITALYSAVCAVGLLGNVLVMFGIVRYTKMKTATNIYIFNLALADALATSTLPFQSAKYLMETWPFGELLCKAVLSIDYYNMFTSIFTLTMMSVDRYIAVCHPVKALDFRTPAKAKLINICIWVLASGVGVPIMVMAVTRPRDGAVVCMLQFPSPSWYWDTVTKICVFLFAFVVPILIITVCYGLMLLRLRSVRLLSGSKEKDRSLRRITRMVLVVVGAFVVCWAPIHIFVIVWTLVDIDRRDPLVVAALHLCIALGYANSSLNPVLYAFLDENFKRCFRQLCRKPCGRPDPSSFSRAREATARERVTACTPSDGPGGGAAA

Structure (SMILES)	EC50 [1]	Emax [1]	IC50 [2]	EC50 [3]	KOR Antagonist %Imax ± SEM [4]	IC50 [5]	DOR Antagonist %Imax ± SEM [5]	Effect on tail withdrawal latency (antinociception) (squirrel monkeys [6])	EC50 (mouse mu opioid receptor [7])	Emax (mouse mu opioid receptor [7])	Effect on ventilatory ratio (respiratory depression) (squirrel monkeys [8])	Ki (mouse mu opioid receptor [9])
C/C=C\[C@@H]1[C@@H]2CCC[C@@]1(c1cccc(O)c1)CCN2CCc1ccccc1 [Compound 21, 3-((1S,5R,9S)-2-Phenethyl-9-((Z)-prop-1-en-1-yl)-2-azabicyclo [3.3.1]nonan-5-yl)phenol]	60.5 ± 3.7 nM	66.7%	163 ± 37 nM	> 10000 nM	111.8 ± 2.2%							
C=C[C@H]1[C@@H]2CCC[C@@]1(c1cccc(OC)c1)CCN2CCc1ccccc1 [Compound 13, (1S,5R,9R)-5-(3-Methoxyphenyl)-2-phenethyl-9-vinyl-2-azabicyclo [3.3.1]nonane]	> 10000 nM		> 10000 nM	> 10000 nM		> 10000 nM						
CC/C=C\[C@@H]1[C@H]2CCC[C@]1(c1cccc(O)c1)CCN2CCc1ccccc1 [Compound 24, 3-((1R,5S,9S)-9-((Z)-But-1-en-1-yl)-2-phenethyl-2-azabicyclo [3.3.1]nonan-5-yl)phenol]	> 10000 nM		283 ± 46.4 nM	> 10000 nM	103.8 ± 9.2%	3220 ± 572 nM	182.3 ± 56.4%					
CC/C=C\[C@H]1[C@H]2CCC[C@]1(c1cccc(O)c1)CCN2CCc1ccccc1 [Compound 23, 3-((1R,5S,9R)-9-((Z)-But-1-en-1-yl)-2-phenethyl-2-azabicyclo [3.3.1]nonan-5-yl)phenol]	> 10000 nM		328 ± 96.9 nM	> 10000 nM	109.5 ± 8.3%	69 ± 4.8 nM	166.6 ± 40.0%					
CN1CC[C@]23c4c5ccc(O)c4O[C@H]2[C@@H](O)C=C[C@H]3[C@H]1C5 [Morphine, reference compound]								significantly increased tail withdrawal latency				
C=C[C@H]1[C@H]2CCC[C@]1(c1cccc(O)c1)CCN2CCc1ccccc1 [Compound 8, 3-((1R,5S,9R)-2-Phenethyl-9-vinyl-2-azabicyclo [3.3.1]nonan-5-yl)phenol]	> 10000 nM		74 ± 30.5 nM	> 10000 nM	97.1 ± 9.2%	113 ± 43.6 nM	119.1 ± 15.5%	significantly increased tail withdrawal latency; also recorded: had antinociceptive effects	6.73 ± 1.35 nM	20.1 ± 0.78%	reduced the ability of 5% CO2 to stimulate increases in ventilation; also recorded: morphine-like respiratory depressant effects	0.5 ± 0.05 nM
C/C=C\[C@H]1[C@@H]2CCC[C@@]1(c1cccc(O)c1)CCN2CCc1ccccc1 [Compound 20, 3-((1S,5R,9R)-2-Phenethyl-9-((Z)-prop-1-en-1-yl)-2-azabicyclo [3.3.1]nonan-5-yl)phenol]	> 10000 nM		4.02 ± 0.25 nM	> 10000 nM	126.7 ± 2.6%	7.52 ± 2.93 nM	142.5 ± 23.7%					
CC/C=C\[C@H]1[C@@H]2CCC[C@@]1(c1cccc(O)c1)CCN2CCc1ccccc1 [Compound 27, 3-((1S,5R,9R)-9-((Z)-But-1-en-1-yl)-2-phenethyl-2-azabicyclo [3.3.1]nonan-5-yl)phenol]	> 10000 nM		0.79 ± 0.28 nM	> 10000 nM	98.2 ± 2.3%	8.22 ± 2.44 nM	211.5 ± 24.7%					
C=C[C@H]1[C@@H]2CCC[C@@]1(c1cccc(O)c1)CCN2CCc1ccccc1 [Compound 15, 3-((1S,5R,9R)-2-Phenethyl-9-vinyl-2-azabicyclo [3.3.1]nonan-5-yl)phenol]	> 10000 nM		28.4 ± 4.2 nM	> 10000 nM	104.9 ± 11.2%	144 ± 41 nM	201.4 ± 35.9%					
C/C=C\[C@H]1[C@H]2CCC[C@]1(c1cccc(O)c1)CCN2CCc1ccccc1 [Compound 17, 3-((1R,5S,9R)-2-Phenethyl-9-((Z)-prop-1-en-1-yl)-2-azabicyclo [3.3.1]nonan-5-yl)phenol]	> 10000 nM		35 ± 9.7 nM	> 10000 nM	111.6 ± 7.9%	113 ± 19.8 nM	143.3 ± 11.9%	increased tail withdrawal latency; also recorded: consistent and significant antinociceptive effects	9.64 ± 1.7 nM	18 ± 1.45%	without significantly altering ventilation; also recorded: limited effects on ventilatory ratio	1.83 ± 0.24 nM
C/C=C\[C@@H]1[C@H]2CCC[C@]1(c1cccc(O)c1)CCN2CCc1ccccc1 [Compound 18, 3-((1R,5S,9S)-2-Phenethyl-9-((Z)-prop-1-en-1-yl)-2-azabicyclo [3.3.1]nonan-5-yl)phenol]	9.69 ± 2.23 nM	74.5%	238 ± 52.6 nM	> 10000 nM	114.8 ± 11.2%				8.38 ± 0.77 nM	75.3 ± 3.83%		0.56 ± 0.07 nM
C=C[C@@H]1[C@@H]2CCC[C@@]1(c1cccc(O)c1)CCN2CCc1ccccc1 [Compound 14, 3-((1S,5R,9S)-2-Phenethyl-9-vinyl-2-azabicyclo [3.3.1]nonan-5-yl)phenol]	122 ± 47.2 nM	40.6%	128 ± 48.2 nM	> 10000 nM	105.6 ± 4.6%							
CC/C=C\[C@@H]1[C@@H]2CCC[C@@]1(c1cccc(O)c1)CCN2CCc1ccccc1 [Compound 26, 3-((1S,5R,9S)-9-((Z)-But-1-en-1-yl)-2-phenethyl-2-azabicyclo [3.3.1]nonan-5-yl)phenol]	> 10000 nM		12.2 ± 2.5 nM	> 10000 nM	96.2 ± 0.9%	520 ± 144 nM	226.1 ± 14.0%					
C=C[C@@H]1[C@H]2CCC[C@]1(c1cccc(O)c1)CCN2CCc1ccccc1 [Compound 9, 3-((1R,5S,9S)-2-Phenethyl-9-vinyl-2-azabicyclo [3.3.1]nonan-5-yl)phenol]	57 ± 21.4 nM	22.6%	19.8 ± 9.7 nM	> 10000 nM	101.8 ± 19.1%			inconsistent effect of tail withdrawal latency; also recorded: antinociceptive effects in some, but not all subjects	37 ± 15.5 nM	10.5 ± 0.82%	did not alter ventilation; also recorded: did not produce morphine-like decreases in ventilatory ratio	1.91 ± 0.13 nM

From PMC9570967 (Molecules, 2022)
